# In PubChem BioAssay AID328 (DTP/NCI, 2004):
# “And” between values parts separate entries of the source, which are not always exact repeats. Identical values can stand only once. Toxic doses and inconclusive results are not listed.
# Tested on: BDF1 mice, P388 leukemia ip, median survival T/C
# Assay: NCI In Vivo Anticancer Drug Screen. Data for tumor model P388 Leukemia (intraperitoneal) in B6D2F1 (BDF1) mice
# Conditions: endpoint: median survival time, higher = longer survival
# Summary of the method: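 Each value expresses how treatment altered survival: treated-mouse outcome over vehicle-mouse outcome, both groups bearing the transplanted tumour.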
# [1] = dose: 50.0 mg/kg/injection, schedule: Q04DX003 (ip), vehicle: saline with Tween-80
# [2] = dose: 100.0 mg/kg/injection, schedule: Q04DX003 (ip), vehicle: saline with Tween-80
# [3] = dose: 200.0 mg/kg/injection, schedule: Q04DX003 (ip), vehicle: saline with Tween-80
# [4] = dose: 400.0 mg/kg/injection, schedule: Q04DX003 (ip), vehicle: saline with Tween-80
# [5] = dose: 12.5 mg/kg/injection, schedule: Q01DX009 (ip), vehicle: Klucel (hydroxypropylcellulose) (HPC)
# [6] = dose: 25.0 mg/kg/injection, schedule: Q01DX009 (ip), vehicle: Klucel (hydroxypropylcellulose) (HPC)
# [7] = dose: 12.5 mg/kg/injection, schedule: Q01DX009 (ip), vehicle: saline with Tween-80
# [8] = dose: 25.0 mg/kg/injection, schedule: Q01DX009 (ip), vehicle: saline with Tween-80
# [9] = dose: 50.0 mg/kg/injection, schedule: Q01DX009 (ip), vehicle: saline with Tween-80
compound,measurement,setting,value
CCCCCCCCCCCCCC(=O)O[C@@H]1[C@@H](C)[C@@]2(O)[C@@H](C=C(CO)C[C@]3(O)C(=O)C(C)=C[C@@H]23)[C@@H]2C(C)(C)[C@]12OC(C)=O,T/C,"dose: 0.03 mg/kg/injection, schedule: Q01DX009 (ip), vehicle: Klucel (hydroxypropylcellulose) (HPC)",110 % of control
same,T/C,"dose: 0.03 mg/kg/injection, schedule: Q01DX009 (ip), vehicle: saline + alcohol",108 % of control
same,T/C,"dose: 0.06 mg/kg/injection, schedule: Q01DX009 (ip), vehicle: Klucel (hydroxypropylcellulose) (HPC)",100 % of control
same,T/C,"dose: 0.06 mg/kg/injection, schedule: Q01DX009 (ip), vehicle: saline + alcohol",110 % of control
same,T/C,"dose: 0.12 mg/kg/injection, schedule: Q01DX009 (ip), vehicle: Klucel (hydroxypropylcellulose) (HPC)",110 % of control
same,T/C,"dose: 0.12 mg/kg/injection, schedule: Q01DX009 (ip), vehicle: saline + alcohol",117 % of control
same,T/C,"dose: 0.25 mg/kg/injection, schedule: Q01DX009 (ip), vehicle: Klucel (hydroxypropylcellulose) (HPC)",92 % of control
same,T/C,"dose: 0.25 mg/kg/injection, schedule: Q01DX009 (ip), vehicle: saline + alcohol",116 % of control
same,T/C,"dose: 0.5 mg/kg/injection, schedule: Q01DX009 (ip), vehicle: Klucel (hydroxypropylcellulose) (HPC)",100 % of control
same,T/C,"dose: 0.5 mg/kg/injection, schedule: Q01DX009 (ip), vehicle: saline + alcohol",104 % of control
same,T/C,"dose: 1.0 mg/kg/injection, schedule: Q01DX009 (ip), vehicle: Klucel (hydroxypropylcellulose) (HPC)",108 % of control
same,T/C,"dose: 3.1 micrograms/kg/injection, schedule: Q01DX009 (ip), vehicle: gum acacia",97 % of control and 108 % of control
same,T/C,"dose: 3.1 micrograms/kg/injection, schedule: Q01DX009 (ip), vehicle: saline with Tween-80",105 % of control
same,T/C,"dose: 6.2 micrograms/kg/injection, schedule: Q01DX009 (ip), vehicle: gum acacia",94 % of control
same,T/C,"dose: 6.2 micrograms/kg/injection, schedule: Q01DX009 (ip), vehicle: saline with Tween-80",109 % of control
same,T/C,"dose: 12.5 micrograms/kg/injection, schedule: Q01DX009 (ip), vehicle: gum acacia",106 % of control
same,T/C,"dose: 12.5 micrograms/kg/injection, schedule: Q01DX009 (ip), vehicle: saline with Tween-80",104 % of control
same,T/C,"dose: 25.0 micrograms/kg/injection, schedule: Q01DX009 (ip), vehicle: gum acacia",103 % of control and 118 % of control
same,T/C,"dose: 25.0 micrograms/kg/injection, schedule: Q01DX009 (ip), vehicle: saline with Tween-80",109 % of control
same,T/C,"dose: 50.0 micrograms/kg/injection, schedule: Q01DX009 (ip), vehicle: gum acacia",97 % of control and 108 % of control and 116 % of control
same,T/C,"dose: 50.0 micrograms/kg/injection, schedule: Q01DX009 (ip), vehicle: saline with Tween-80",114 % of control
same,T/C,"dose: 100.0 micrograms/kg/injection, schedule: Q01DX009 (ip), vehicle: gum acacia",106 % of control and 108 % of control
same,T/C,"dose: 100.0 micrograms/kg/injection, schedule: Q01DX009 (ip), vehicle: saline with Tween-80",113 % of control
same,T/C,"dose: 200.0 micrograms/kg/injection, schedule: Q01DX009 (ip), vehicle: gum acacia",101 % of control and 103 % of control and 113 % of control
same,T/C,"dose: 200.0 micrograms/kg/injection, schedule: Q01DX009 (ip), vehicle: saline with Tween-80",97 % of control
same,T/C,"dose: 400.0 micrograms/kg/injection, schedule: Q01DX009 (ip), vehicle: gum acacia",103 % of control
same,T/C,"dose: 400.0 micrograms/kg/injection, schedule: Q01DX009 (ip), vehicle: saline with Tween-80",103 % of control
same,T/C,"dose: 800.0 micrograms/kg/injection, schedule: Q01DX009 (ip), vehicle: gum acacia",100 % of control and 106 % of control
COc1cccc(C=O)c1OC,T/C,[1],112 % of control
same,T/C,[2],107 % of control
same,T/C,[3],112 % of control
same,T/C,[4],107 % of control
COc1ccccc1CC(C)N (centres undefined),T/C,"dose: 20.0 mg/kg/injection, schedule: Q01DX009 (ip), vehicle: saline with Tween-80",87 % of control
same,T/C,"dose: 80.0 mg/kg/injection, schedule: Q01DX009 (ip), vehicle: saline with Tween-80",91 % of control
CCN(C)c1nc(N(C)CC)c2nc(N(C)CC)nc(N(C)CC)c2n1,T/C,"dose: 3.13 mg/kg/injection, schedule: Q01DX009 (ip), vehicle: Klucel (hydroxypropylcellulose) (HPC)",108 % of control
same,T/C,"dose: 6.25 mg/kg/injection, schedule: Q01DX009 (ip), vehicle: Klucel (hydroxypropylcellulose) (HPC)",99 % of control
same,T/C,[5],99 % of control
same,T/C,[6],106 % of control
CCCC[N+](CCCC)=c1cc(-c2ccc(Cl)cc2)ss1,T/C,"dose: 3.12 mg/kg/injection, schedule: Q01DX009 (ip), vehicle: water",100 % of control and 114 % of control
same,T/C,"dose: 6.25 mg/kg/injection, schedule: Q01DX009 (ip), vehicle: water",91 % of control and 120 % of control
same,T/C,"dose: 12.5 mg/kg/injection, schedule: Q01DX009 (ip), vehicle: water",98 % of control and 104 % of control
same,T/C,"dose: 25.0 mg/kg/injection, schedule: Q01DX009 (ip), vehicle: water",100 % of control and 106 % of control
same,T/C,"dose: 50.0 mg/kg/injection, schedule: Q04DX003 (ip), vehicle: water",102 % of control
same,T/C,"dose: 100.0 mg/kg/injection, schedule: Q04DX003 (ip), vehicle: water",93 % of control
CCOC(=O)CC1NCCC2C1CCC(OC)C2OC (centres undefined),T/C,[7],95 % of control
same,T/C,[8],100 % of control
same,T/C,[9],100 % of control
same,T/C,"dose: 50.0 mg/kg/injection, schedule: Q04DX003 (ip), vehicle: other",110 % of control
same,T/C,"dose: 100.0 mg/kg/injection, schedule: Q01DX009 (ip), vehicle: other",105 % of control
same,T/C,"dose: 100.0 mg/kg/injection, schedule: Q04DX003 (ip), vehicle: other",100 % of control
same,T/C,"dose: 200.0 mg/kg/injection, schedule: Q01DX009 (ip), vehicle: other",110 % of control
same,T/C,"dose: 200.0 mg/kg/injection, schedule: Q04DX003 (ip), vehicle: other",100 % of control
C/C(=N/S(=O)(=O)c1ccc(C)cc1)OCCN(C)C,T/C,"dose: 1.5 mg/kg/injection, schedule: Q01DX009 (ip), vehicle: saline with Tween-80",104 % of control
same,T/C,"dose: 3.0 mg/kg/injection, schedule: Q01DX009 (ip), vehicle: saline with Tween-80",109 % of control
same,T/C,"dose: 3.0 mg/kg/injection, schedule: Q04DX003 (ip), vehicle: saline with Tween-80",100 % of control
same,T/C,"dose: 6.0 mg/kg/injection, schedule: Q01DX009 (ip), vehicle: saline with Tween-80",118 % of control
same,T/C,"dose: 6.0 mg/kg/injection, schedule: Q04DX003 (ip), vehicle: saline with Tween-80",100 % of control
CSc1cccc(NC(=O)OCCOc2ccc(-c3ccccc3)cc2)c1,T/C,[5],109 % of control
same,T/C,[6],105 % of control
same,T/C,"dose: 50.0 mg/kg/injection, schedule: Q01DX009 (ip), vehicle: Klucel (hydroxypropylcellulose) (HPC)",111 % of control
COC1=C(c2ccccc2)C(=O)CCc2ccccc21,T/C,"dose: 100.0 mg/kg/injection, schedule: Q04DX003 (ip), vehicle: Klucel (hydroxypropylcellulose) (HPC)",100 % of control
same,T/C,"dose: 200.0 mg/kg/injection, schedule: Q04DX003 (ip), vehicle: Klucel (hydroxypropylcellulose) (HPC)",100 % of control
same,T/C,"dose: 400.0 mg/kg/injection, schedule: Q04DX003 (ip), vehicle: Klucel (hydroxypropylcellulose) (HPC)",100 % of control
CCCCCCCCCCOP(=S)(N1CC1)N1CC1,T/C,[7],108 % of control
same,T/C,"dose: 13.0 mg/kg/injection, schedule: Q04DX003 (ip), vehicle: saline with Tween-80",113 % of control
same,T/C,"dose: 20.0 mg/kg/injection, schedule: Q04DX003 (ip), vehicle: saline with Tween-80",152 % of control
same,T/C,[8],245 % of control
same,T/C,"dose: 33.0 mg/kg/injection, schedule: Q04DX003 (ip), vehicle: saline with Tween-80",169 % of control
same,T/C,"dose: 44.0 mg/kg/injection, schedule: Q04DX003 (ip), vehicle: saline with Tween-80",195 % of control
same,T/C,[9],183 % of control
same,T/C,[1],226 % of control
same,T/C,"dose: 67.0 mg/kg/injection, schedule: Q04DX003 (ip), vehicle: saline with Tween-80",272 % of control
same,T/C,"dose: 75.0 mg/kg/injection, schedule: Q04DX003 (ip), vehicle: saline with Tween-80",243 % of control
same,T/C,[2],272 % of control
same,T/C,"dose: 125.0 mg/kg/injection, schedule: Q04DX003 (ip), vehicle: saline with Tween-80",165 % of control
same,T/C,"dose: 150.0 mg/kg/injection, schedule: Q04DX003 (ip), vehicle: saline with Tween-80",272 % of control
Cc1nc2c(NC(=O)C(F)(F)F)nn(C)c2nc1C,T/C,[2],100 % of control
same,T/C,[3],104 % of control
same,T/C,[4],100 % of control
